The results in this text go back to BindingDB's records for patent US20250250264 (Wuhan Humanwell Innovative Drug Research And Development …, 2025).

What is called IC50 is the concentration needed to halve the response being measured. Read a high IC50 as weaker potency.

This experiment deals with T1, Kinesin-like protein KIF18A [1-467] (Human, UniProt Q8NI77).
T1 construct: 1-467
T1 sequence (Q8NI77 whole entry): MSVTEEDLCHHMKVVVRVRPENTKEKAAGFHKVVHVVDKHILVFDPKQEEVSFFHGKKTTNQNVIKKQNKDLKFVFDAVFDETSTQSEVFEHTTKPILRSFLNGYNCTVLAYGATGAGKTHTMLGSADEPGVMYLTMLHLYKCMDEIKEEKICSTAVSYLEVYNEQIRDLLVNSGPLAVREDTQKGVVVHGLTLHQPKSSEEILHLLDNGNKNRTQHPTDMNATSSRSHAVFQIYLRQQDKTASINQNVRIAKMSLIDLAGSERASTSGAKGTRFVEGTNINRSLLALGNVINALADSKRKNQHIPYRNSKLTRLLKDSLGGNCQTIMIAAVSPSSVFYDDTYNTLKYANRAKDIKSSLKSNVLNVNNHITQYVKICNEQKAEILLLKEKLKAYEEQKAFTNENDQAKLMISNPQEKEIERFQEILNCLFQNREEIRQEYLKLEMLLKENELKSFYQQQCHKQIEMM
Kind of experiment: Assay on Inhibition of KIF18A Enzymatic Activity. As for the experimental part: The reaction system consisted of a test compound, the recombinant protein KIF18A (aa 1-467), ATP (Promega Inc), and an assay buffer. The test compound was prepared into a 0.5 mM stock solution using DMSO (Sigma Inc) and then serially diluted in DMSO. The assay buffer consisted of an aqueous solution of 15 mM Tris, 10 mM MgCl2 (Sigma Inc), 0.01% Pluronic F-68 (Life Technologies Inc), 1 μM paclitaxel (Cytoskeleton Inc), 30 μg/mL porcine tubulin (Cytoskeleton Inc), and 2% DMSO. The KIF18A protein (final concentration: 80 nM) and the compound at different concentrations (1 μL) were added to the prepared assay buffer (50 μL), and the mixture was incubated at room temperature for 15 min. Then, ATP (final concentration: 80 μM) was added to the reaction mixture, and the resulting mixture was incubated at room temperature for 3 h. After the reaction was completed, 5 μL of the ADP-Glo™ reagent and 2.5 μL of the reaction mixture were added to a 384-well plate (Grenier Inc). The resulting mixture was mixed homogeneously, then sealed by an aluminum foil sealing film, and incubated at room temperature in the dark for 40 min. […] After all reactions were completed, the luminescence values of the wells were read on a microplate reader (Molecular Device_SpectraMax Id5), and the inhibition ratios were calculated.

Each structure is given as a SMILES string.

The compound `Cc1cc(-c2nnc(-c3ccc(NS(=O)(=O)CCO)cc3N3CCC4(CC3)CC4)o2)c(F)c(N2CCC(F)(F)CC2)n1` [US20250250264, Compound I-53] showed an IC50 of 25 nM.

Regarding `Cc1cc(-c2nnc(-c3ccc(NS(=O)(=O)CCO)cc3N3CCC4(CC3)CC4)s2)nc(OCCC(F)(F)F)n1` [US20250250264, Compound I-99], the IC50 was 3 nM.
